System: Eimeria Tenella (Weybridge) sporozites
Assay: in vitro anti-coccidial activity, primary explant cultures of chick embryo liver cells with sporozites
Type: cell-based
Conditions: with sulphaquinoxaline 0.01 μg/ml and diaveridine 0.031 μg/ml
Method: The anti-coccidial activity of compounds of formula (III) alone and in combination with a mixture of diaveridine (DV) and sulphaquinoxaline (SQX) in vitro was tested according to the following procedure.
Using standard test procedures employing primary explant cultures of chick embryo liver cells and a suspension of Eimeria Tenella (Weybridge) sporozites the activity of the compounds was determined at various concentrations. In the above test, each test compound was used either alone or in combination with sulphaquinoxaline (0.01 μg/ml) and diaveridine (0.031 μg/ml). It should be noted that the minimum active anti-coccidial amounts of sulphaquinoxaline and diaveridine are 0.024 μg/ml and 0.098 μg/ml respectively.
The following results were obtained wherein activity is expressed as follows: […]

COC(=O)C1=NN(C)c2nc(N)[nH]c(=O)c2C(c2cc(OC)c(OC)c(OC)c2)=C1 [Example 6, 8-Amino-3-carbomethoxy-1-methyl-5-(3,4,5-trimethoxyphenyl)-1H-pyrimido{4,5-c}-1,2-diazepin-6(7H)-one]
Activity, with DV/SQX (100 μg/ml): 5 (No parasite development)

CCOC(=O)C1=NN(C)c2nc(N)[nH]c(=O)c2C(c2ccc(OC)cc2OC)=C1 [Example 7, 8-Amino-3-carbethoxy-1-methyl-5-(2,4-dimethoxyphenyl)-1H-pyrimido{4,5-c}-1,2-diazepin-6(7H)-one]
Activity, with DV/SQX (25 μg/ml): 5 (No parasite development)
Activity, with DV/SQX (100 μg/ml): 5 (No parasite development)
